Experimental data: ChEMBL document CHEMBL1201862, “PubChem BioAssay data set” (2004)
Values belong to the molecule of their own block, whether it stands above or below them. The source made the active and inactive calls.

What was measured:
[1] = target: Sphingosine 1-phosphate receptor 1 (Homo sapiens, UniProt P21453); test: Fluorescence-based counterscreen assay for S1P4 agonists: Cell-based dose response high throughput screening assay to identify agonists of the Sphingosine 1-Phosphate Receptor 1 (S1P1). [Related pubchem assays (depositor defined):AID1509, AID1523, AID1801, AID463107, AID463118, AID463119, AID463122, AID463123, AID463129, AID463225, AID504400, AID504460]; assay type: functional
[2] = target: Sphingosine 1-phosphate receptor 4 (Homo sapiens, UniProt O95977); test: Fluorescence dose response cell-based high throughput screening assay for agonists of the Sphingosine 1-Phosphate Receptor 4 (S1P4). [Related pubchem assays: 1509 (Primary screen.), 1523 (Confirmation screen in triplicates.)]; assay type: functional
[3] = target: Nucleotide-binding oligomerization domain-containing protein 1 (Homo sapiens, UniProt Q9Y239); test: SAR analysis of compounds that inhibit NOD1 - Set 3. [Related pubchem assays (depositor defined):AID1566, AID1575, AID1578, AID1849, AID1852, AID2333, AID2335, AID2466]; assay type: functional
Tumor necrosis factor = Tumor necrosis factor (Homo sapiens, UniProt P01375); test: analog potency on TNFa NF-kB signaling – cell-based, set 3, SAR follow-up (AID 2801); assay type: functional
HEK293 = test: SAR analysis of compounds that are cytotoxic to HEK293 - Set 3. [Related pubchem assays (depositor defined):AID1575, AID1578, AID1848, AID1849, AID2001, AID2333, AID2334, AID2335, AID2337, AID2469]; assay type: functional, cell-based; details: Homo sapiens
[4] = target: Nucleotide-binding oligomerization domain-containing protein 2 (Homo sapiens, UniProt Q9HC29); test: inhibition of MDP-driven NOD2 NF-kB reporter – cell-based, set 3, SAR follow-up (AID 2799); assay type: functional
[5] = target: T1, Kappa-type opioid receptor (Homo sapiens, UniProt P41145); test: kappa opioid receptor activation by imaging – image-based, set 3, SAR follow-up (AID 488833); assay type: functional
Mu-type opioid receptor = Mu-type opioid receptor (Homo sapiens, UniProt P35372); test: SAR Analysis of Agonists of the MOR Receptor using an Image-Based Assay - Set 3. [Related pubchem assays (depositor defined):AID1777, AID1785, AID1786, AID1966, AID2133, AID2136, AID2284, AID2285, AID2352]; assay type: functional
[6] = target: Delta-type opioid receptor (Homo sapiens, UniProt P41143); test: SAR Analysis of Agonists of the DOR Receptor using an Image-Based Assay - Set 3. [Related pubchem assays (depositor defined):AID1777, AID1786]; assay type: functional
[7] = target: T1, Kappa-type opioid receptor; test: SAR analysis of small molecule agonists of the kappa opioid receptor via a luminescent beta-arrestin assay - Set 3. [Related pubchem assays (depositor defined):AID1777, AID1785, AID1786, AID1966, AID2133, AID2136, AID2284, AID2500]; assay type: functional
[8] = PhoP promoter GFP reporter reduction in Typhimurium – purified and synthesized compounds, set 2, PhoP regulon inhibitor project, dose response (AID 2831); assay type: functional
[9] = decrease of insulin promoter-GFP reporter – imaging, high-content screening, mouse beta cells (AID 1628); assay type: functional; details: MIN6
[10] = MIN6 cell viability loss – mouse insulinoma, cytotoxicity control, dose response (AID 2122); assay type: functional;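 also: confirmatory high-throughput counterscreen run to flag cytotoxic compounds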
Ion channel NompC = Ion channel NompC (Danio rerio, UniProt Q7T1G6); test: Dose response cell-based high-throughput screening assay for agonists of the transient receptor potential channel N1 (TRPN1). [Related pubchem assays (depositor defined):AID1424, AID1448]; assay type: functional
Mucolipin-3 = Mucolipin-3 (Homo sapiens, UniProt Q8TDD5); test: Fluorescence counterscreen assay for […] agonists: dose response cell-based high-throughput screening assay to identify agonists of the transient receptor potential channel ML3 (TRPML3). [Related pubchem assays: 1424, 1448 ]; assay type: functional
[11] = target: T2, Carboxy-terminal domain RNA polymerase II polypeptide A small phosphatase 1 (Homo sapiens, UniProt Q9GZU7); test: CTDSP1 inhibitors, concentration-response, biochemical, absorbance readout, ultra-high-throughput screen actives (AID 540297); assay type: functional
T2 sequence (Q9GZU7 whole entry): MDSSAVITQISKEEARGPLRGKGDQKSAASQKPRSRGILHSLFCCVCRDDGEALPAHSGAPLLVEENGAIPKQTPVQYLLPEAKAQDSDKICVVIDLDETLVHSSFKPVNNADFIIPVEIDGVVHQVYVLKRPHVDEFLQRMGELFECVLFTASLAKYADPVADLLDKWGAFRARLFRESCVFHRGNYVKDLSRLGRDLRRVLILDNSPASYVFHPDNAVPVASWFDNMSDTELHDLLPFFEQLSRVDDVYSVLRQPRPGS

T1 sequence (P41145 whole entry): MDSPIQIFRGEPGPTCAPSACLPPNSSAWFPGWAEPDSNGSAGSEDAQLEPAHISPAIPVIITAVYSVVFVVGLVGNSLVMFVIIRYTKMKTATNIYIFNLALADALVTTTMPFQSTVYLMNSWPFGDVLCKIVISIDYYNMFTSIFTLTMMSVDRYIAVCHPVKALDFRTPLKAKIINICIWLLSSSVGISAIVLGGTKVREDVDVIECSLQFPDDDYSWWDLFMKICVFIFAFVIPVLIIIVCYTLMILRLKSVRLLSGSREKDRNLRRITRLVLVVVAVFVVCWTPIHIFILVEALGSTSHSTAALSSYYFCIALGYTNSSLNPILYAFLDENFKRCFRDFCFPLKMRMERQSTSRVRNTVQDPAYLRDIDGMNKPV
Delta-type opioid receptor, sequence (P41143 whole entry): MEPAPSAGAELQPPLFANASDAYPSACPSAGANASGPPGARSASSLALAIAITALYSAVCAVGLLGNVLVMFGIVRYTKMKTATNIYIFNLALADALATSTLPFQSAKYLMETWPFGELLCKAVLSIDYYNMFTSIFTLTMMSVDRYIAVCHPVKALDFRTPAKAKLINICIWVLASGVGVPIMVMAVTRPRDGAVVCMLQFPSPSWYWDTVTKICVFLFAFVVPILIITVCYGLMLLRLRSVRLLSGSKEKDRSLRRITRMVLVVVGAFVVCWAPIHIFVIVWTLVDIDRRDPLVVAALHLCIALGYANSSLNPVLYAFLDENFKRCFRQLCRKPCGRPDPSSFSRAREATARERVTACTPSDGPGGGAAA
Mucolipin-3, sequence (Q8TDD5 whole entry, the tested form may be a part): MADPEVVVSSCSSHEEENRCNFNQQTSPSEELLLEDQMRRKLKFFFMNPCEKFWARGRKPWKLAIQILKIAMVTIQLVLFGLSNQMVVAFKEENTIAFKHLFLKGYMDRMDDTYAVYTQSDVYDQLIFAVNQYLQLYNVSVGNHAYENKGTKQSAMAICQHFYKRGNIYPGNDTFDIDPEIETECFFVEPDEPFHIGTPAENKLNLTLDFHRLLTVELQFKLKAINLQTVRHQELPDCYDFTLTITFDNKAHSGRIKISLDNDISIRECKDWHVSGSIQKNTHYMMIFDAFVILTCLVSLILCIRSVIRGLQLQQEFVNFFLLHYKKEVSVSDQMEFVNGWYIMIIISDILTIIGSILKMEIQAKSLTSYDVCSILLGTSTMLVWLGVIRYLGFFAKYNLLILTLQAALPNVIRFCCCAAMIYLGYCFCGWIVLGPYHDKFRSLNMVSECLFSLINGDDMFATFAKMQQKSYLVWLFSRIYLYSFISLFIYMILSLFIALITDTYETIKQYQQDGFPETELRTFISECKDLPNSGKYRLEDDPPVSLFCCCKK
Sphingosine 1-phosphate receptor 1, sequence (P21453 whole entry): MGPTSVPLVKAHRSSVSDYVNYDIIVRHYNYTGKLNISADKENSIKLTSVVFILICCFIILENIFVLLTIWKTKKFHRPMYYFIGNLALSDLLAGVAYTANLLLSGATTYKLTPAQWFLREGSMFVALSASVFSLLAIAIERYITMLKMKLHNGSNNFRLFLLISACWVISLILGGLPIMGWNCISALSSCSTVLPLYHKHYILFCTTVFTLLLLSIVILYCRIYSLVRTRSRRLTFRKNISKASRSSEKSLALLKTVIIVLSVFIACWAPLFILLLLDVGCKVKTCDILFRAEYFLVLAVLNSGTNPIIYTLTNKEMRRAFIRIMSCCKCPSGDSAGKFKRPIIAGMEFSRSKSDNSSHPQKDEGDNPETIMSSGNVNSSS
Sphingosine 1-phosphate receptor 4, sequence (O95977 whole entry, the tested form may be a part): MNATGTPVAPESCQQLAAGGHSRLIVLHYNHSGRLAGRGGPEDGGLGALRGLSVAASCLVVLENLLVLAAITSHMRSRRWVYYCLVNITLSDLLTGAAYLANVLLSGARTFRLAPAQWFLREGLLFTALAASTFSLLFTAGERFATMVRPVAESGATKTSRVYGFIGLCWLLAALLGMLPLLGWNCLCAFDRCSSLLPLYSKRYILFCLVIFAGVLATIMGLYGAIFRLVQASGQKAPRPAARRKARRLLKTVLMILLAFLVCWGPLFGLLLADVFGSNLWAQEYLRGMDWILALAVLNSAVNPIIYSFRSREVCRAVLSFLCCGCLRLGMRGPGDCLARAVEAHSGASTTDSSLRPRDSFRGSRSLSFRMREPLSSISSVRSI
Nucleotide-binding oligomerization domain-containing protein 1, sequence (Q9Y239 whole entry, the tested form may be a part): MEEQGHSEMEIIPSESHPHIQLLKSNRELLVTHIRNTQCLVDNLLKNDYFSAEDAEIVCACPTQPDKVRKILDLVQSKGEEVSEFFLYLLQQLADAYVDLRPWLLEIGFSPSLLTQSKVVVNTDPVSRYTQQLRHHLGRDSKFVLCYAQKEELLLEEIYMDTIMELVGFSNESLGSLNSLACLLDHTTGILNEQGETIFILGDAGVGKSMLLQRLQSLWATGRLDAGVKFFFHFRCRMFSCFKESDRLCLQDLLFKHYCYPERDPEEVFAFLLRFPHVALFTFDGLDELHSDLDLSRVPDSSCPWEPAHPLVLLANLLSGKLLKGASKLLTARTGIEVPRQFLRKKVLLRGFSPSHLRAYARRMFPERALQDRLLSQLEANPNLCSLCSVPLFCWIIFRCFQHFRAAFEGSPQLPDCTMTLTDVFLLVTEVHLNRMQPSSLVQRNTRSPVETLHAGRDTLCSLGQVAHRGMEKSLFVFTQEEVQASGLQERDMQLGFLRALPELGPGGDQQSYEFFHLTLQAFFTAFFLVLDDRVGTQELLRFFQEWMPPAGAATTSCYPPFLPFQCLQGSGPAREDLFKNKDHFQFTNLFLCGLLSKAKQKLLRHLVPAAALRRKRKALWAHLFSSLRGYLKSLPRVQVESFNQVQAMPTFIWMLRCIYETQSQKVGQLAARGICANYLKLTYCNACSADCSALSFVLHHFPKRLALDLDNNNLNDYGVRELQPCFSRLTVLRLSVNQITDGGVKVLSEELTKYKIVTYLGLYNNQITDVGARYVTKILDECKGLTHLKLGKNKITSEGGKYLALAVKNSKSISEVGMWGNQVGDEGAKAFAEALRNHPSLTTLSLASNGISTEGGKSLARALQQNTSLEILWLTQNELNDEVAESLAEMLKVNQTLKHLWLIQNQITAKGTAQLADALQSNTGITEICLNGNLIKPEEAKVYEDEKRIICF
Ion channel NompC, sequence (Q7T1G6 whole entry): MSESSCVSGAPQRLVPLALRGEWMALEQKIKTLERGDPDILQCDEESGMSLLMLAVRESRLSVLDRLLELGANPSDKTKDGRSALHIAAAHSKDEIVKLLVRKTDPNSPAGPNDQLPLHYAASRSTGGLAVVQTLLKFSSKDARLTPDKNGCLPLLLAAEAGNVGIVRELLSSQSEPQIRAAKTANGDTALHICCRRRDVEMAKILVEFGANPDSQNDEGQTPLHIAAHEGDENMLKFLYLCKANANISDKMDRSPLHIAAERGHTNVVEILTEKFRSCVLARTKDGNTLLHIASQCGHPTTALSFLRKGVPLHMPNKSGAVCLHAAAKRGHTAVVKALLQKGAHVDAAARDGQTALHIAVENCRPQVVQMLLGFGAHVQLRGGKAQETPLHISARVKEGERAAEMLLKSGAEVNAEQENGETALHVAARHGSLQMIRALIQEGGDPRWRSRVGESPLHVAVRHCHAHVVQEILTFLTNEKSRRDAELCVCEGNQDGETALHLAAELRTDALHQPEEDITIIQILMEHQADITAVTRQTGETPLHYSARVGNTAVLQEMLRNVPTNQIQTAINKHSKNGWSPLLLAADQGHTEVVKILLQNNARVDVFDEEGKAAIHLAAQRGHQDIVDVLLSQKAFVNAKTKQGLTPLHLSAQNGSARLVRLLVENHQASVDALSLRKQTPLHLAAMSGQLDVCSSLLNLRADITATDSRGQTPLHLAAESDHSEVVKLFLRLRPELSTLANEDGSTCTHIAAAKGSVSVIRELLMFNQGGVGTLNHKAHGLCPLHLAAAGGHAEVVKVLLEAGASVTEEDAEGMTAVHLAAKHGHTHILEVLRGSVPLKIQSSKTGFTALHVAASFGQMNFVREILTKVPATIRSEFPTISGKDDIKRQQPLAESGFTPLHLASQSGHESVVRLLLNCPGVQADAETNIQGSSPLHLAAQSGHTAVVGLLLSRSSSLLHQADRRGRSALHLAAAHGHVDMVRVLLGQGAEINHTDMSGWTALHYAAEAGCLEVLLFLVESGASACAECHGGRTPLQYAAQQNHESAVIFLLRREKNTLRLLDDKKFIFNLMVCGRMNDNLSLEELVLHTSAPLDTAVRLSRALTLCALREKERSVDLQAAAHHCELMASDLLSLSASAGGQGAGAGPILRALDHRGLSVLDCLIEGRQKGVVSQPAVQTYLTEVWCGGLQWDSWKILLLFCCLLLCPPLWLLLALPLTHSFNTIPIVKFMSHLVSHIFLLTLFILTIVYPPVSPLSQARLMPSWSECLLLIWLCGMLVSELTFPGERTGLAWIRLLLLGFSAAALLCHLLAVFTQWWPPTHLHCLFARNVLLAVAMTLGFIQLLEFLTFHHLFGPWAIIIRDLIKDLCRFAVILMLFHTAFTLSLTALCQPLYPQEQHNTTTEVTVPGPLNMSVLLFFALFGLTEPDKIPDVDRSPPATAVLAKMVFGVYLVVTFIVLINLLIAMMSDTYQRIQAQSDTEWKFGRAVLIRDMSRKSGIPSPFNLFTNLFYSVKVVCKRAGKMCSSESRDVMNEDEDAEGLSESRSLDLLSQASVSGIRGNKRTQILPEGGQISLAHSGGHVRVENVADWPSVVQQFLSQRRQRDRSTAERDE
Mu-type opioid receptor, sequence (P35372 whole entry): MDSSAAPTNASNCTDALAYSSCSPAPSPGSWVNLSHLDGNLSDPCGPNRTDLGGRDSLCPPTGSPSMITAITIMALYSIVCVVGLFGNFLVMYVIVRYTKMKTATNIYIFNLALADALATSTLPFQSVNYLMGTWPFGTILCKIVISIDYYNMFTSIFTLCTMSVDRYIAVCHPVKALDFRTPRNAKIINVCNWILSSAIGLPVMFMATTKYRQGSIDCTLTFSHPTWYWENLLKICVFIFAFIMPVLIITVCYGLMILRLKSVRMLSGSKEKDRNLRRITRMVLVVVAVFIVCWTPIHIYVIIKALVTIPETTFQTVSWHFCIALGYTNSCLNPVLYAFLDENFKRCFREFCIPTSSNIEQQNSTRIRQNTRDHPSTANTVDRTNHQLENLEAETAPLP

EC50 [1]: > 49.8 µM (inactive)
EC50 [2]: > 16.6 µM (not active)
Compound: CCOC(=O)c1c(-n2c(C)cc(C=O)c2C)sc2c1CCCC2

EC50 [5]: 2.17 µM (active)
EC50 (Mu-type opioid receptor): > 32 µM (inactive)
EC50 [6]: > 32 µM (inactive)
EC50 [7]: 3.66 µM (active)
Compound: CC(C)c1ccc(CSc2nnc(-c3ccccn3)n2Cc2cccs2)cc1

Second part, the molecule before the results:

Compound: N#Cc1ccccc1S(=O)(=O)n1c(N)nc2ccccc21
IC50 [3]: > 20 µM (inactive)
IC50 (Tumor necrosis factor): > 20 µM (inactive)
IC50 (HEK293): > 20 µM (inactive)
IC50 [4]: > 20 µM (inactive)

Compound: COc1ccc(CNC(=S)Nc2ccncc2)cc1
IC50 [8]: > 150 µM (active)

Compound: CCCc1ccc(C(=O)NC(=O)c2ccccc2O)cc1
IC50 [9]: 4.87 µM (active)
IC50 [10]: 3.97 µM (active)
EC50 (Ion channel NompC): > 3.32 µM (inactive)
EC50 (Mucolipin-3): 14.7 µM (not active)
IC50 [11]: 8.68 µM (active)
